Laboratory results from patent publication US6358987B1, “Metalloproteinase inhibitors” (British Biotech Pharmaceuticals Limited, priority 1997, dated 2002).

Row | SMILES | melting point
1 | COCCOCCNC(=O)[C@@H](NC(=O)[C@H](CC(C)C)[C@H](CN(C)S(C)(=O)=O)C(=O)NO)C(C)(C)C [Example 2, N^1-Hydroxy-3R-isobutyl-2R-[(methanesulfonyl-methyl-amino)-methyl]-N^4-{1S-[2-(2-methoxy-ethoxy)-ethyl-carbamoyl]-2,2-dimethyl-propyl}-succinamide] | 192 to 193 °C
2 | CC(C)C[C@@H](C(=O)N[C@H](CO)Cc1ccccc1)[C@H](CN(C)S(C)(=O)=O)C(=O)NO [Example 3, N^4-(1S-Benzyl-2-hydroxy-ethyl)-N^1-hydroxy-3R-isobutyl-2R-[(methanesulfonyl-methyl-amino)-methyl]-succinamide] | 200 to 202 °C
3 | CC(C)C[C@@H](C(=O)N[C@H](CO)Cc1c[nH]cn1)[C@H](CN(C)S(C)(=O)=O)C(=O)NO [Example 5, N^1-Hydroxy-N^4-[2-hydroxy-1S-(1H-imidazol-4-ylmethyl)-ethyl]-3R-isobutyl-2S-[(methanesulfonyl-methyl-amino)-methyl]-succinamide] | 219 to 221 °C
4 | COc1ccc(S(=O)(=O)N(C)C[C@H](C(=O)NO)[C@@H](CC(C)C)C(=O)N[C@H](C(=O)N(C)C)C(C)(C)C)cc1 [Example 7, N^4-(1S-Dimethylcarbamoyl-2,2-dimethyl-propyl)-N^1-hydroxy-3R-isobutyl-2S-{[(4-methoxy-benzenesulfonyl)-methyl-amino]-methyl}-succinamide] | 217 to 222 °C
5 | COc1ccc(S(=O)(=O)N(C)C[C@H](C(=O)NO)[C@@H](CC(C)C)C(=O)N[C@H](CO)Cc2ccccc2)cc1 [Example 8, N^4-(1S-Benzyl-2-hydroxy-ethyl)-N^1-hydroxy-3R-isobutyl-2S-{[(4-methoxy-benzenesulfonyl)-methyl-amino]-methyl}-succinamide] | 196 to 203 °C
6 | COc1ccc(S(=O)(=O)N(C)C[C@H](C(=O)NO)[C@@H](CC(C)C)C(=O)N[C@H](CO)Cc2c[nH]cn2)cc1 [Example 9] | 208 to 209 °C

The next lines start with the values.

Row | melting point | SMILES
7 | 216 to 218 °C | CC(C)C[C@@H](C(=O)N[C@H](C(=O)N(C)C)C(C)(C)C)[C@H](CN(C)S(C)(=O)=O)C(=O)NO [Example 1]
8 | 167 to 169 °C | CC(C)C[C@@H](C(=O)N[C@H](CO)C(C)(C)C)[C@H](CN(C)S(C)(=O)=O)C(=O)NO [Example 4, N^1-Hydroxy-N^4-(1S-hydroxymethyl-2,2-dimethylpropyl)-3R-isobutyl-2R-[(methanesulfonyl-methyl-amino)-methyl]-succinamide]
9 | 125 to 128 °C | CC(C)C[C@@H](C(=O)N[C@H](CO)Cc1ccc(O)cc1)[C@H](CN(C)S(C)(=O)=O)C(=O)NO [Example 6, N^1-Hydroxy-N^4-[2-hydroxy-1S-(4-hydroxy-benzyl)-ethyl]-3R-isobutyl-2S-[(methanesulfonyl-methyl-amino)-methyl]-succinamide]
10 | 181 to 184 °C | COc1ccc(S(=O)(=O)N(C)C[C@H](C(=O)NO)[C@@H](CC2CCCC2)C(=O)N[C@H](CO)C(C)(C)C)cc1 [Example 10, 3R-Cyclopentylmethyl-N^1-hydroxy-N^4-(1S-hydroxymethyl-2,2-dimethyl-propyl)-2S-{[(4-methoxy-benzenesulfonyl)-methyl-amino]-methyl}-succinamide]
11 | 201 to 207 °C | CN(C[C@H](C(=O)NO)[C@@H](CCCc1ccc(-c2ccccc2)cc1)C(=O)N[C@H](CO)Cc1ccccc1)S(C)(=O)=O [Example 12, N^4-(1S-Benzyl-2-hydroxy-ethyl)-3R-(3-biphenyl-4-yl-propyl)-N^1-hydroxy-2S-[(methanesulfonyl-methyl-amino)-methyl]-succinamide]
12 | 226 to 228 °C | COc1ccc(S(=O)(=O)N(C)C[C@H](C(=O)NO)[C@@H](CCCc2ccc(-c3ccccc3)cc2)C(=O)N[C@H](CO)C(C)(C)C)cc1 [Example 13, 3R-(3-Biphenyl4-yl-propyl)-N^1-hydroxy-N^4-(1S-hydroxymethyl-2,2-dimethyl-propyl)-2S-{[(4-methoxy-benzenesulfonyl)-methyl-amino]-methyl}-succinamide]
13 | 245 to 247 °C | COc1ccc(S(=O)(=O)N(C)C[C@H](C(=O)NO)[C@@H](CCCc2ccc(-c3ccccc3)cc2)C(=O)N[C@H](CO)Cc2ccccc2)cc1 [Example 14, N^4-(1S-Benzyl-2-hydroxy-ethyl)-3R-(3-biphenyl-4-yl-propyl)-N^1-hydroxy-2S-{[(4-methoxy-benzenesulfonyl)-methyl-amino]-methyl}-succinamide]
